The target of one assay is RbgA (Staphylococcus aureus, UniProt A0A0H2XK72). Briefly: GTPase activity assay of wild-type and Atto488-labeled RbgA. As to conditions: 100 μM ppGpp, 1 μM GTP, 0.1 μM RA-GTPase, 0.1 μM 70S ribosomes, 37°C, 60 min. It is filed as biochemical. The text has this: To gain further insight into the binding mechanism and how (p)ppGpp reduces the association of RA-GTPases to the ribosomal subunits, we used a stopped-flow technique with fluorescent derivatives of the RA-GTPases (Fig. 3A). Structural predictions of all four RA-GTPases were built by homology modeling using available structures to assess the availability of suitable residues for fluorescence labeling (see Fig. S3A and B) ([43]). Both RbgA and HflX were amenable to covalent linkage to the fluorophore Atto-488 using maleimide chemistry with exposed cysteine residues. […]
Sequence of RbgA (A0A0H2XK72 entry or part of it): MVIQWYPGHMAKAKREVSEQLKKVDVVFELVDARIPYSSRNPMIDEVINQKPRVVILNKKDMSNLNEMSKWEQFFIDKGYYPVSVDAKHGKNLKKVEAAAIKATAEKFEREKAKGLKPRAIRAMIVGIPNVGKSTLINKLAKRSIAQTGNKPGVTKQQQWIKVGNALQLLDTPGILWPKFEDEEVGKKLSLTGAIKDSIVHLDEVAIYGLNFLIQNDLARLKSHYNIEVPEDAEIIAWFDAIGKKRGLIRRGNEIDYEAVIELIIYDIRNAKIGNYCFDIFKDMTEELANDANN
Supplementary file : FIG S3 Labeling sites and GTPase activity of Atto488-labelled proteins. […] Enzymatic activity was monitored by TLC and quantified by using ImageQuant. […]
GTPase activity assays were performed as previously described ([10]). Briefly, the ability of proteins to hydrolyze GTP was determined by incubating 100 nM recombinant protein with 100 nM S. aureus 70S ribosomes, 1 μM GTP and 2.78 nM [α-^32P]GTP in 40 mM Tris (pH 7.5), 100 mM NaCl (100 mM KCl for RbgA), and 10 mM MgCl2 at 37°C for the indicated times. […] The radioactive spots were exposed to a BAS-MS imaging plate (Fujifilm) and visualized using an LA 7000 Typhoon PhosphorImager (GE Healthcare), and images were quantified using ImageQuant (GE Healthcare).

Assay [1] concerns RA-GTPases RsgA, RbgA, Era, and HflX. Briefly: Hydrolysis of pppGpp by the RA-GTPases. Type of assay: biochemical, Staphylococcus aureus. The text has this:
It is well characterized that rRNA transcription decreases during the stringent response ([39]). In addition, the GTPase activity of ribosome assembly cofactors is inhibited by (p)ppGpp, both of which contribute to a reduction in mature ribosomes within the cell ([27]). To examine mechanistically how (p)ppGpp-GTPase interactions affect the ability of RA-GTPases to associate with ribosomal subunits, we examined the association of each GTPase to either the 30S or 50S ribosomal subunit in the presence of GDP, GTP, ppGpp, and pppGpp, as well as GMPPNP, a nonhydrolyzable analogue of GTP. […] His-tagged GTPases were preincubated with highly pure, salt-washed 70S S. aureus ribosomes in a low-magnesium buffer to encourage ribosomal subunit dissociation, and the amount of each GTPase associated with each of the subunits was quantified by Western immunoblotting with anti-His antibodies after sucrose gradient separation. […]
GTPase activity assays were performed as previously described ([10]). […] The radioactive spots were exposed to a BAS-MS imaging plate (Fujifilm) and visualized using an LA 7000 Typhoon PhosphorImager (GE Healthcare), and images were quantified using ImageQuant (GE Healthcare).

As for `Nc1nc2c(ncn2[C@@H]2O[C@H](COP(=O)(O)OP(=O)(O)O)[C@@H](OP(=O)(O)OP(=O)(O)O)[C@H]2O)c(=O)[nH]1` [ppGpp], on RbgA, the “inhibition of GTPase activity of Atto488-labeled RbgA” value was “can still be inhibited”. Turning to `Nc1nc2c(ncn2[C@@H]2O[C@H](COP(=O)(O)OP(=O)(O)OP(=O)(O)O)[C@@H](OP(=O)(O)OP(=O)(O)O)[C@H]2O)c(=O)[nH]1` [pppGpp], in assay [1], the “hydrolysis of pppGpp by the four RA-GTPases” value is given as “unable to hydrolyze”.

The record behind these values is publication PMC8579695, “The Stringent Response Inhibits 70S Ribosome Formation in Staphylococcus aureus by Impeding GTPase-Ribosome Interactions” (mBio, 2021).
